{"source": "patent US10716783B2", "about": "“Prolylhydroxylase/ATF4 inhibitors and methods of use for treating neural cell injury or death and conditions resulting therefrom” (CORNELL UNIVERSITY, priority 2013, dated 2020)", "key": {"[1]": {"test_system": "HIF PHDs", "experiment": "ODD-luciferase reporter mice, in vivo bioluminescence imaging and tissue lysates", "settings": "for ODD-luciferase activity in brain: in vivo bioluminescence imaging, intraperitoneal; for ODD-luciferase activity in lysates from different brain regions: normalized to total protein, luminometer", "from_the_text": "(§1) FIGS. 3A-3G. Validation of adaptoquin as a novel HIF PHD inhibitor. […] Under steady state conditions, activity of HIF PHD2 with its co-substrate 2-oxoglutarate involves two peaks that represent non-hydroxylated and hydroxylated peptide. The hydroxylated peptide disappears in the presence of HIF PHD2 inhibition by adaptoquin. […] The reporter contains the ODD domain of HIF-1 which confers HIF PHD regulated stability on it. It is expressed in all cells of the body, but is destabilized in the absence of HIF PHD inhibition and stabilized in its presence. Quantitative measurements confirm stability of the ODD-luc in brain, kidney and liver (FIGS. 3D and 3E.).\nTo identify HIF PHD inhibitors suitable for testing in ICH, the experiment first sought to identify which of the known HIF PHD inhibitors could penetrate the blood brain barrier to inhibit HIF PHD activity in the CNS. To monitor HIF PHD activity dynamically, the experiment utilized mice that had previously been engineered to ubiquitously express the oxygen degradation domain (ODD) of HIF-1α fused to firefly luciferase. The ODD domain contains proline 402 and 564, which are hydroxylated by the HIF PHDs to degrade HIF-1 or the ODD-luciferase. Accordingly, these mice have been used previously to track HIF PHD activity in diverse organs in vivo using in vivo bioluminescence imaging.\n(§2) To verify that the changes in light in the brain reflect parenchymal changes in ODD-luciferase levels rather than increases in changes in skin or dural ODD-luciferase, ODD-luciferase activity was measured normalized to total protein in lysates from distinct brain regions using a luminometer."}, "[2]": {"test_system": "HIF-1 protein", "experiment": "HIF-1 protein stabilisation in primary neurons (Western blot)", "format": "cell-based", "settings": "FIG. 6H, 6I", "from_the_text": "FIGS. 1A-1L: Structurally diverse HIF PHD inhibitors stabilize HIF-1 and abrogate toxicity induced by hemin, a byproduct of blood breakdown, in cortical neurons hippocampal neuroblasts and striatal neuroblasts (not shown). […] FIGS. 6A-6I. […] Expression of ATF4 was forced into primary neurons, which induces death of these neurons by MTT assay (FIG. 6D) or LIVE/DEAD staining, Green is live, Red is dead (FIG. 6E)."}, "[3]": {"test_system": "intracerebral hemorrhage (collagenase into the striatum)", "experiment": "Collagenase-induced ICH in mice", "format": "in vivo", "settings": "for Corner task (spatial neglect): 30 mg/kg i.p. 2 h post collagenase then daily for seven days; for Tape removal task (sensory neglect): 1 and 3 days post ICH; for Neuronal degeneration (Fluoro-jade staining), striatum hematoma and perihematomal area: day 7", "protocol": "FIGS. 4A-4N. Adaptoquin delivered post-injury reduces cell death and enhances functional recovery post injury in mice and rats. Adaptoquin's effects in mice are not associated with global shifts of iron out of the brain. FIG. 4A: Experimental design for schedule of delivery of adaptaquin post-ICH. 30 mg/kg was delivered post-injury and then daily for seven days during which behavioral analysis was done. Mice were sacrificed at day 7 for qPCR and Fluoro-jade staining. […] FIG. 4J: Protocol for adaptoquin treatment of rats with ICH. ICH is modeled by autologous blood infusion and not collagenase in these studies. Behavior is tracked by a single pellet reaching task out to 28 days, but the schedule of infusion is similar to what is used in mice-2 hrs post blood infusion and then daily out to seven days. Behavior is monitored before, from 9-11 days and from 25-28 days. […] FIG. 4L: Protocol for evaluating the total concentrations of iron and zinc in brain following ICH in vehicle and adaptoquin treated mice. FIGS. 4M, 4N: Pseudocolored sections of collagenase induced ICH in mice after 7 days. […] These studies are consistent with the notion that adaptoquin works by inhibiting a specific metalloenzyme rather than global movement of metal ions. To determine whether HIF PHD inhibition after ICH can improve behavioral outcomes, 30 mg/kg of adaptoquin was delivered to the peritoneum of mice two hours following the injection of collagenase into the striatum. An identical dose of adaptoquin (30 mg/kg) was given daily for seven days. […] These molecular deletion and pharmacological inhibition studies supported HIF PHDs as targets for therapy post ICH, but left unanswered the mechanism by which adaptoquin could abrogate neuronal death. A first prediction of the model was that adaptoquin enhances functional recovery without affecting total brain iron levels. Total iron levels were monitored in brain sections from vehicle- and adaptoquin-treated (30 mg/kg) mice seven days following ICH."}, "[4]": {"test_system": "primary neurons", "experiment": "Death induced by forced ATF4 expression in primary neurons (MTT, LIVE/DEAD)", "format": "cell-based", "settings": "concentrations protective in the oxidative stress model", "from_the_text": "(§3) FIGS. 6A-6I. […] Expression of ATF4 was forced into primary neurons, which induces death of these neurons by MTT assay (FIG. 6D) or LIVE/DEAD staining, Green is live, Red is dead (FIG. 6E)."}, "[5]": {"biological_target": "recombinant HIF PHD2 (Homo sapiens, UniProt Q9GZT9)", "sequence (Q9GZT9 whole entry)": "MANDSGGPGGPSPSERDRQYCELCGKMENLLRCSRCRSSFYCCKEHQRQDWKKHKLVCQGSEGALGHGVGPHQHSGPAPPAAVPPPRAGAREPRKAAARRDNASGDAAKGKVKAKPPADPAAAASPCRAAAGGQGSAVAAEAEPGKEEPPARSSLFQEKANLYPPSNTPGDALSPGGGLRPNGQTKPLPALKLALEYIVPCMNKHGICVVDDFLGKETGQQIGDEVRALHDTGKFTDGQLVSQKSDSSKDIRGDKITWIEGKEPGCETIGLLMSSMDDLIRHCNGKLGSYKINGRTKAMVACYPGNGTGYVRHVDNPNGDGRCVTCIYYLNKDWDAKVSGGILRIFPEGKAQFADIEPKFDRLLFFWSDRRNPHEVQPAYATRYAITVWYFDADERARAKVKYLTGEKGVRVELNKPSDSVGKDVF", "experiment": "Recombinant HIF PHD2 hydroxylation of HIF peptide, non-denaturing mass spectrometry", "format": "biochemical", "from_the_text": "as §1, §2"}, "[6]": {"test_system": "ATF4", "experiment": "ATF4 dependent gene expression under oxidative stress in neurons (microarray, qPCR, promoter occupancy)", "format": "cell-based", "from_the_text": "FIGS. 5A-5G. […] Because adaptoquin is a HIF PHD inhibitor that appears to work independent of HIF transcription factors, and because hemin induced death involves oxidative stress, the effect of adaptoquin on oxidative glutamate toxicity was examined. This form of toxicity is observed in primary cortical neurons from E17 rat embryos (2 DIV) and involves glutamate mediated inhibition of the amino acid cystine via its plasma membrane transporter. […] Accordingly, the optimal concentration of adaptoquin in protecting neurons was first determined and found to be about 1 micromolar. […] To determine the mechanism of adaptoquin, transcriptomic experiments were performed using non-protective and protective concentrations of drug harvesting RNA just prior to the time the cell's becoming insensitive to adaptoquin (16 hrs), as provided in FIG. 5C.\nas §3\nTo probe the mechanism of adaptoquin-induced neuroprotection, the study moved its attention to a well established model of oxidative stress in neurons induced by glutamate. Like hemin induced toxicity, oxidative glutamate toxicity is abrogated by forced expression of GPX4 (Alim et al., unpublished observations). However, oxidative glutamate toxicity has a much longer window before cells are committed to die (eighteen hours), facilitating analysis of primary events involved in cell death and protection. A detailed dose response and therapeutic window study was performed with adaptoquin in mouse cortical neurons exposed to glutamate or the glutamate analog, homocysteate. […] To probe the mechanism of this potent, delayed protection, a microarray transcriptomics study was performed using RNA from neuronal cultures that had been exposed to glutamate (or HCA) for 16 hours with vehicle, as well as non-protective (100 nM) and protective doses of adaptoquin (1 μM). […]"}}, "note": "Entries after “also recorded” stand apart in the source; their conditions may differ. Like-named read-outs stand apart in the source and are kept apart here.", "data": [{"compound": "Oc1cccnc1NC(c1ccc(Cl)cc1)c1ccc2cccnc2c1O", "note": "(stereo not drawn) [adaptoquin]", "values": [{"measurement": "Message levels of p21 waf1/cip1 in brain", "setting": "[1]; adaptoquin 30 mg/kg", "value": "increased message levels of p21 waf1/cip1"}, {"measurement": "ODD-luciferase activity in brain", "setting": "[1]; adaptoquin 30 mg/kg", "value": "significantly increase ODD-luciferase levels and activity"}, {"measurement": "ODD-luciferase activity in brain", "setting": "[1]; adaptoquin 30 mg/kg, listed as Adaptoquin", "value": "inhibits the HIF PHDs in brain in a dose dependent fashion"}, {"measurement": "ODD-luciferase activity in lysates from different brain regions", "setting": "[1]", "value": "An increase in activity"}, {"measurement": "ODD-luciferase activity in lysates from different brain regions", "setting": "[1]; listed as Adaptoquin", "value": "dose dependent increases throughout the brain"}, {"measurement": "HIF-1 stabilisation relative to protective concentration", "setting": "[2]", "value": "stabilizes HIF-1 at concentrations higher than that required for full protection"}, {"measurement": "Corner task (spatial neglect)", "setting": "[3]", "value": "significantly normalized"}, {"measurement": "Corner task (spatial neglect)", "setting": "[3]; listed as Adaptoquin", "value": "corrects behavioral deficits"}, {"measurement": "Tape removal task (sensory neglect)", "setting": "[3]; 30 mg/kg i.p.", "value": "significant improvement"}, {"measurement": "Tape removal task (sensory neglect)", "setting": "[3]; 30 mg/kg i.p., listed as Adaptoquin", "value": "corrects behavioral deficits"}, {"measurement": "Hematoma size", "setting": "[3]; 30 mg/kg i.p., at 24 hours", "value": "no difference"}, {"measurement": "Edema", "setting": "[3]; 30 mg/kg i.p., at three days", "value": "did decrease edema"}, {"measurement": "Neuronal degeneration (Fluoro-jade staining), striatum hematoma and perihematomal area", "setting": "[3]; 30 mg/kg i.p.", "value": "reduction in the number of degenerating neurons"}, {"measurement": "Neuronal degeneration (Fluoro-jade staining), striatum hematoma and perihematomal area", "setting": "[3]; 30 mg/kg i.p., listed as Apatoquin", "value": "significantly reduces neuronal degeneration"}, {"measurement": "p21 expression", "setting": "[3]; 30 mg/kg post-ICH then daily for seven days, qPCR day 7", "value": "induced p21 expression"}, {"measurement": "Death induced by oxidative stress and ATF4 forced expression", "setting": "[4]", "value": "mitigates death induced by oxidative stress and ATF4 forced expression"}, {"measurement": "Inhibition of recombinant HIF PHD2 activity (hydroxylation of HIF peptide)", "setting": "[5]", "value": "inhibit the ability of recombinant HIF prolyl hydroxylase 2 to hydroxylate an HIF peptide"}, {"measurement": "Inhibition of recombinant HIF PHD2 activity (hydroxylation of HIF peptide)", "setting": "[5]; listed as Adpatoquin", "value": "inhibits activity of recombinant HIF PHD2"}, {"measurement": "Oxidative stress and ATF4 dependent induction of Trb3", "setting": "[6]; 1 micromolar", "value": "abrogates oxidative stress and ATF4 dependent induction of Trb3"}, {"measurement": "ATF4 occupancy at the promoter of Trib3", "setting": "[6]; oxidative stress", "value": "abrogates oxidative stress induced ATF4 occupancy"}, {"measurement": "Expression of ATF4 dependent genes (Trib3, MTHFR2, SCL7A11, STC2)", "setting": "[6]; protective doses (1 μM), quantitative PCR / microarray", "value": "significantly reduces expression of ATF4 dependent genes; also recorded: downregulation of ATF4 dependent genes"}]}]}
